This is an account of results in patent US20020156129A1, “Method of treating pruritus and a pharmaceutical composition for the method” (priority 2001, published 2002).

The test system of test [1] is ICR mice, cutaneous barrier function disrupted by acetone/diethylether and water. The experiment in a line: Scratching action of mice with disrupted cutaneous barrier function, subcutaneous administration (Example 1). The settings on record: subcutaneous 10 mg/kg at barrier-disrupted site, 15 min before recording; scratching counted for 2 hours; mean ± standard error, 8 mice. The test is classed as in vivo, mouse. On the procedure:
A number of scratching action of 8 mice per 2 hours is shown by the average percentage±standard error based on the average of the control group (100%). “S” represents the control group which received saline, “L” represents L-NAME administrated group and “D” represents D-NAME administrated group.
The evaluation of the therapeutic effects of the pharmaceutical composition of the present invention may be conducted by using the small test animals produced by the method developed by the inventors, such as mice of which the cutaneous barrier function have been disrupted. Such animals may be produced according to the following procedure: An noninflammation dermal lesion caused by the disruption of cutaneous barrier function may be induced by degreasing the small test animals by applying an organic solvent to the glabrous skin of the animals and then treating with water. […] For example, the hydration of the stratum corneum can be determined by a technique of conductimetry, determination of electrostatic capacity or FT-IR method. Transepidermal water loss can be non-invasively determined with an electric measuring instrument or the like so as not to influence the scratching action. […]

The subject of test [2] is NC mouse. To be noted: administration of NOS inhibitor; cited from earlier work.

For the compound `COC(=O)[C@H](N)CCCN=C(N)N[N+](=O)[O-]` [D-NAME, Nw-nitro-D-arginine methyl ester], the “number of the scratching action relative to saline control group (100%)” value in test [1] is recorded as 90.9±15.2%. Consider `COC(=O)[C@@H](N)CCCNC(=N)N[N+](=O)[O-]` [L-NAME, Nw-nitro-L-arginine methyl ester], for which the “number of the scratching action relative to saline control group (100%)” value in test [1] turned out to be 27.9±6.4%. For the same compound, in test [2], the “effect on scratching action” value is listed as “scratching action can be suppressed”.
